System: ALIX, PKR and PACT
Assay: Co-IP analysis of interactions among FLAG-ALIX, PKR and PACT in HEK293T cells
Format: cell-based, human
Conditions: 1 mM LLOMe for 30 min
Experimental: HEK293T cells expressing FLAG (control) or FLAG-ALIX Were treated with 1 mM LLOMe for 30 min. Cell lysates Were immunoprecipitated with anti-FLAG antibody and immunoblotted for indicated proteins. […] FL (full length); Bro1 (Bro1 domain); V domain; PRD (proline-rich domain). Numbers, residue positions. (ii) Schematic illustration of the Ca^2+/ALG-2-induced open conformation of ALIX. […] HEK293T cells expressing FLAG tagged ALIX mutants and Myc-PKR Were treated with 1 mM LLOMe for 30 min. Cell lysates Were immunoprecipitated with anti-GFP antibody and immunoblotted for indicated proteins. FIG. 12F Analysis of proteins associated with purified lysosomes (LysoIP; TMEM192-3×HA) from HEK293T cells transfected with scrambled siRNA as control (SCR), or ALIX siRNA for knockdown (ALIX^KD). Cells Were treated with 1 mM LLOMe for 30 min. FIG. 12G Schematic summary of the findings in FIGS. 5 and S5. One of three independent western Blot experiments shown. See also FIG. 1S1.

COC(=O)[C@H](CC(C)C)NC(=O)[C@@H](N)CC(C)C [LLOMe, L-leucyl-L-leucine methyl ester]
interaction between FLAG-ALIX and endogenous PKR and PACT (co-IP): notably enhanced
